Like-named read-outs stand apart in the source and are kept apart here.
Tests used:
[1] = biological target: T1, PTPN3-Bidomain (Homo sapiens, UniProt P26045); assay: pNPP hydrolysis by PTPN3-Bidomain pre-incubated with PBM peptide; assay type: biochemical; settings: Bidomain 75 nM + large excess of peptide (molar ratio 600:1, 30 min at 25°C), pNPP 19 µM-10 mM, pH 7.5, 25°C, A410, three independent experiments; for Km: substrate-inhibition Michaelis-Menten fit
T1 construct: 6xHis (N); made in house; host or cells: E. coli BL21 Star (DE3)
T1 sequence (P26045 488-913): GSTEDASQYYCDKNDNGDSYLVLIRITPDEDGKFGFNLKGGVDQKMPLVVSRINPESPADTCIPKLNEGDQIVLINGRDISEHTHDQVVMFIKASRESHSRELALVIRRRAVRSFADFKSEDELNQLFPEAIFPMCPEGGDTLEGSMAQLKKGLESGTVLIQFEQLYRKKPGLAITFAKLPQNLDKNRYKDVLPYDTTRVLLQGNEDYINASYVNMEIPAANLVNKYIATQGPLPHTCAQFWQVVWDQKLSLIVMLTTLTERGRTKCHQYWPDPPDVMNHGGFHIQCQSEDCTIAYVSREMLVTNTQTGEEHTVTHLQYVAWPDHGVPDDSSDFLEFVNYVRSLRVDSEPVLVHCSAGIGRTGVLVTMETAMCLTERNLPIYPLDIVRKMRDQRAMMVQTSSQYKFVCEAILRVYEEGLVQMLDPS
Method: We performed enzymatic assays on the constructs PTPN3-Bidomain, PTPN3-linker-PTP, PTPN3-shLinker-PTP (short linker, missing 23 residues) and PTPN3-PDZ (Figure 1). In all experiments, the phosphatase activity was assessed using the synthetic nonspecific phosphatase substrate p-nitrophenyl phosphate (pNPP), whose hydrolysis into p-nitrophenol (pNP) can be followed spectrophotometrically at 410 nm. Reactions were performed in 50 mM Tris-HCl, pH 7.5, 1 mM MgCl2, 150 mM NaCl, 0.5 mM.
TCEP The initial reaction rates were measured independently at pH 7.5 and at 25°C. pNPP was assayed for concentrations ranging from 19 μM to 10 mM at an enzyme concentration of 75 nM. […] The experimental data was therefore fitted to a corrected Michaelis-Menten equation to take into consideration this inhibition.
The equation is: Vo = Vmax [S]/(Km + [S] + [S]2/Ki) with Vo the initial rate, Vmax the maximal rate, [S] the substrate concentration and Ki the inhibition constant.
Phosphatase activity was measured by following the hydrolysis of pNPP as previously described ([Maisonneuve et al., 2014]). Absorbances were measured continuously at 410 nm for pNP, using a Thermo Scientific UV spectrometer equilibrated at 25°C. Initial linear reaction rates were calculated during a 60 s reaction. The kcat and KM constants were deduced from fitting the Michaelis-Menten equation with the Prism software. The data are representative of three independent experiments.
A large excess (molar ratio 600:1) of each peptide was incubated with PTPN3-Bidomain for 30’ at 25°C, and the initial rates of the dephosphorylation reaction were measured in the same range of pNPP concentrations.
To assess whether the PBM binding to the PDZ domain releases the catalytic inhibition as observed for PTPN4 ([Maisonneuve et al., 2014]), we added the PBM peptides of the PTPN3 cellular partners, PBM-TACE and PBM-p38γ, and the viral peptides PBM-16E6, PBM-HBc, in large excess ([…]) to PTPN3-Bidomain (Figure 7A; Table 3). For all peptides, a 2-fold decrease in kcat compared to PTPN3-linker-PTP is measured, as in the unbound Bidomain, while the KM remained unaffected (Table 3). Thus, we concluded that the PBM binding has no effect on PTPN3 catalytic activity in our conditions. Accordingly, the specificity constants (kcat/KM) of the complexed Bidomain are in the same range in comparison with the values of PTPN3-Bidomain (Table 3).

[2] = biological target: T2, PTPN3-PDZ (Homo sapiens, UniProt P26045); settings: holdup, biotinylated 12-mer peptide; threshold 0.2; ref Genera et al., 2021; cited from earlier work
T2 construct: GST (N, cleaved yes); made in house; host or cells: E. coli BL21 Star (DE3)
T2 sequence (P26045 510-582 limits assumed): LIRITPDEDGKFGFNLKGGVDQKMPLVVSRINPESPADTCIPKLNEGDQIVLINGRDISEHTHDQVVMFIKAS
From the text: (§1) We generated a PDZome-binding profile of PBM-p38γ. Mean values of binding intensities (BI) ranked based on affinity are reported in Supplementary Material S1. The highest BI values indicate the PDZ domains recognized with the best affinities by the peptides used as bait. […] In recent work we established the PDZome-binding profile of PBM-HBc with 28 PDZ domains also identified as significant binders ([Genera et al., 2021]). Thus, this similar number of P ...

[3] = tested on: PTPN4-PDZ; settings: holdup, biotinylated 12-mer peptide; threshold 0.2; ref Genera et al., 2021; cited from earlier work
From the text: as §1

[4] = tested on: library of human PDZ domains (266 PDZ domains, 97% of the human PDZome); settings: holdup against human PDZome; ref Genera et al., 2021; cited from earlier work
From the text: as §1

[5] = biological target: T2, PTPN3-PDZ; assay: Holdup assay (binding intensity), PTPN3-PDZ; settings: biotinylated 12-mer peptide on resin, MBP-PDZ bacterial extract, capillary electrophoresis, mean BI, significance threshold 0.2
Method: (§2) The holdup assay was conducted against the biotinylated peptide PBM-p38γ (Supplementary Material S1) following previously established protocols ([Vincentelli et al., 2015]; [Duhoo et al., 2019]) with some slight modifications. In summary, we utilized a high-throughput technique to measure the affinities and specificities of motifs in a library of human PDZ domains, which involved the use of both robotic and microfluidic methodologies. To achieve this, we expressed 266 PDZ domains fused with the Maltose Binding Protein (MBP) tag, which constituted 97% of the human PDZome. Bacterial extracts containing overexpressed PDZ domains were incubated with PBM peptide-coated resins in 96-well plates, then filtered and evaluated using microfluidic capillary electrophoresis to determine binding intensities (BIs) in the flowthroughs. […]
(§3) Then, we investigated the specificity profiles of the PBMs of the PTPN3-PDZ ligands p38γ and of HBc against the full human PDZome (library that contains all the known human PDZ domains) ([Duhoo et al., 2019]). […] 12-mer peptides encompassing the protein C-terminal PBM sequences linked to a biotinyl group are used as baits to quantify the interaction between PBMs and the library of human PDZ domains expressed in Escherichia coli ([Duhoo et al., 2019]). […]

[6] = tested on: PTPN4-PDZ; assay: Holdup assay (binding intensity), PTPN4-PDZ; set-up: species or system human; settings: biotinylated 12-mer peptide on resin, MBP-PDZ bacterial extract, capillary electrophoresis, mean BI, significance threshold 0.2
Method: as §2, §3

[7] = tested on: library of human PDZ domains (266 PDZ domains, 97% of the human PDZome); assay: Holdup assay, PDZome-binding profile; settings: holdup against human PDZome; about 10% of the PDZome
Method: as §2, §3

[8] = biological target: biotinylated peptide PBM-p38γ (12-mer, holdup bait); assay: holdup assay; biotinylated PBM peptide on resin in 96-well plates; bacterial extracts with overexpressed MBP-PDZ domains incubated, filtered, flowthrough read by microfluidic capillary electrophoresis; binding intensity (BI), threshold 0.2
[9] = biological target: HBc PBM (Hepatitis B virus) (UniProt P03149); settings: cited from earlier work
[10] = biological target: HPV16 E6 PBM (Human papillomavirus type 16) (UniProt P03126); settings: cited from earlier work
HPV16 E6 PBM (Human papillomavirus type 16), sequence (P03126 whole entry, looked up): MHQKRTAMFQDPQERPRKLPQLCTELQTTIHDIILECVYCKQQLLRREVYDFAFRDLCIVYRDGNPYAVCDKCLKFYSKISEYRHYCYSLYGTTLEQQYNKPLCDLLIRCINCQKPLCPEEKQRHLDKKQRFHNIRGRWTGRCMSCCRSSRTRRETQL

[11] = biological target: HPV18 E6 PBM (Human papillomavirus type 18) (UniProt P06463); settings: cited from earlier work
HPV18 E6 PBM (Human papillomavirus type 18), sequence (P06463 whole entry, looked up): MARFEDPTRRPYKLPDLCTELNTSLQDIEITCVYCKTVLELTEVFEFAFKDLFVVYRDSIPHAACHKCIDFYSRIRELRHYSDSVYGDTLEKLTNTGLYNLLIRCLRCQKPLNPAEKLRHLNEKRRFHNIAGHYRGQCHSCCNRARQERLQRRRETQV

[12] = biological target: p38γ PBM (Homo sapiens) (UniProt P53778); settings: cited from earlier work
[13] = biological target: PTPN3 PDZ domain (PTPN3-PDZ) (human, UniProt P26045-1 510-582, Limits taken from the PDB 6HKS/8OEP/8CQY entity (offset 483, N-terminal GAMGS tag remnant left out); the end at 597 agrees with the printed linker start at 598. 15N-labelled for NMR.); assay: NMR titration; 1H,15N HSQC chemical shift perturbations of 15N-labelled PTPN3-PDZ (117 μM); PBM-TACE added stepwise, PDZ:peptide 1:0 to 1:8.5, 11 points; 15°C; 50 mM Tris/HCl pH 7.5, 150 mM NaCl, 0.5 mM TCEP, 5% D2O; 1:1 model, 14 peaks; settings: both partners purified

RRRRSQS R E S Q C [PBM-HBc]
Km [1]: 1300 ± 100 µM
k cat of pNPP hydrolysis [1]: 1.6 ± 0.1 s^-1
binding intensity (BI) [2]: 0.45
binding intensity (BI) [3]: 0.58
number of PDZ domains identified as significant binders [4]: 28 PDZ domains

WARVS K E T P L [PBM-p38γ]
binding intensity (BI) [5]: 0.52
binding intensity (BI) [6]: 0.60
number of PDZ domains with significant binding (BI greater than 0.2) [7]: 28 PDZ domains
Km [1]: 1200 ± 300 µM
k cat of pNPP hydrolysis [1]: 1.7 ± 0.2 s^-1

RSSRTR R E T Q L [PBM-16E6]
Km [1]: 800 ± 100 µM
k cat of pNPP hydrolysis [1]: 1.5 ± 0.1 s^-1

PTPN3-PDZ of the holdup PDZome library (MBP fusion) (from UniProt P26045-1 510-582) (domain or fragment)
binding intensity (BI) [8]: 0.52

PTPN3 PDZ (from UniProt P26045)
Kd [9]: 29 µM
Kd [10]: 53 µM
Kd [11]: 37 µM
Kd [12]: 26 µM

B1: PTPN4-PDZ of the holdup PDZome library (MBP fusion) (domain or fragment)
chain: LIRMKPDENGRFGFNVKGGYDQKMPVIVSRVAPGTPADLCVPRLNEGDQVVLINGRDIAEHTHDQVVLFIKAS
binding intensity (BI) [8]: 0.6

B2: PBM-TACE peptide (last C-terminal 12 residues of TACE) (peptide)
peptide: RQNRVDSKETEC
notes: last C-terminal 12 residues of TACE (tumor necrosis factor alpha-convertase, ADAM17), encompassing the PBM; also called PBM of the tumor necrosis factor-alpha converting enzyme; source: synthetic peptide (solid phase, Fmoc; Proteogenix)
Kd [13]: 30 µM
